Results from US20230045616A1, “CANCER TREATMENT METHOD AND MEDICINE” (Nonprofit Organization North East Japan Study Group, priority 2019, published 2023).
“Also recorded” adds a separate entry of the source.

System: lung cancer
Test: CT / X-ray images of cancer tissue in treated lung cancer patients (case reports)
Type: in vivo, human

Substance: nivolumab
- cancer tissue in CT images after the treatment (Example 3 patient, nivolumab after administration of Extract Z, FIG. 5): almost eliminated
- primary foci and lymph node metastasis (Example 23 patient, nivolumab alone 240 mg every 2 weeks from September, 2017, progression observed on Nov. 6, 2020): primary foci were almost eliminated and metastasis to the lymph nodes was eliminated
- swelling in the cervical lymph node (CT images) (nivolumab 240 mg every 2 weeks continued after radiation of 30 Gy/10 fr to the cervical lymph node, stage IVb lung cancer patient): suppressed (April and October, 2019) and partially remitted; also recorded: suppressed (May, 2019) and partially remitted
- swelling in the cervical lymph node to which cancer had been metastasized (CT images) (nivolumab alone, 240 mg per dose i.v. drip at an interval of 2 weeks, stage IVb lung cancer patient without driver gene mutation): progressed
